According to ChEMBL document CHEMBL1201862, “PubChem BioAssay data set” (2004):
Each block holds one compound with its values, some of them ahead of it. Calls of active or inactive are those of the source.

Key:
[1] = general mammalian cell viability loss – inhibitor set, cherry-pick, set 2, cytotoxicity control for miR-122 modulator project, dose response (AID 720697); format: functional, cell-based
[2] = activation of miR-122 Renilla sensor silencing – cell-based, Huh7 psiCHECK-miR122, Renilla luciferase, cherry-picked, dose response (AID 651956); format: functional;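 further: huh7 hepatoma cells stably carrying a psiCHECK-2 miR-122 sensor plasmid; renilla luciferase signal reporting endogenous miR-122 activity after 48 h compound exposure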
[3] = target: T1, Nuclear receptor subfamily 0 group B member 1 (Homo sapiens, UniProt P51843); format: functional, cell-based;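 further: HEK293T cells transfected with SF-1 and DAX-1 plus StAR promoter luciferase reporter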
T1 sequence (P51843 whole entry): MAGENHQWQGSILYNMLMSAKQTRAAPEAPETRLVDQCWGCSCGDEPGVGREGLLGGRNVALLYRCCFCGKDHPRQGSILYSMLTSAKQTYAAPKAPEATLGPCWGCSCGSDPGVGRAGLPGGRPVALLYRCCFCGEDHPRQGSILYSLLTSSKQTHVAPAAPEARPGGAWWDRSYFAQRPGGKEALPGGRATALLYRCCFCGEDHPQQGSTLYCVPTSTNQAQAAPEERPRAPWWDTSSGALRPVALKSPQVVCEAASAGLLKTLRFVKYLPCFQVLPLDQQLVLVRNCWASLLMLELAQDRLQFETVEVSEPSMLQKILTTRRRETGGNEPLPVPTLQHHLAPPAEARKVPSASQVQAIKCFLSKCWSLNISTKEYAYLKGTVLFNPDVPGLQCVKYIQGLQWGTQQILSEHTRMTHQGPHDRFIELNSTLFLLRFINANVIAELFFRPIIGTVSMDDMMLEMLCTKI

[4] = cells; format: functional, cell-based
[5] = target: T2, Rac GTPase-activating protein 1 (Homo sapiens, UniProt Q9H0H5); experiment: blockers of MgcRacGAP-driven Rac1 GTP hydrolysis – biochemical, ADP Hunter fluorescence, primary and confirmatory, confirmation (AID 624330); format: functional
T2 sequence (Q9H0H5 whole entry): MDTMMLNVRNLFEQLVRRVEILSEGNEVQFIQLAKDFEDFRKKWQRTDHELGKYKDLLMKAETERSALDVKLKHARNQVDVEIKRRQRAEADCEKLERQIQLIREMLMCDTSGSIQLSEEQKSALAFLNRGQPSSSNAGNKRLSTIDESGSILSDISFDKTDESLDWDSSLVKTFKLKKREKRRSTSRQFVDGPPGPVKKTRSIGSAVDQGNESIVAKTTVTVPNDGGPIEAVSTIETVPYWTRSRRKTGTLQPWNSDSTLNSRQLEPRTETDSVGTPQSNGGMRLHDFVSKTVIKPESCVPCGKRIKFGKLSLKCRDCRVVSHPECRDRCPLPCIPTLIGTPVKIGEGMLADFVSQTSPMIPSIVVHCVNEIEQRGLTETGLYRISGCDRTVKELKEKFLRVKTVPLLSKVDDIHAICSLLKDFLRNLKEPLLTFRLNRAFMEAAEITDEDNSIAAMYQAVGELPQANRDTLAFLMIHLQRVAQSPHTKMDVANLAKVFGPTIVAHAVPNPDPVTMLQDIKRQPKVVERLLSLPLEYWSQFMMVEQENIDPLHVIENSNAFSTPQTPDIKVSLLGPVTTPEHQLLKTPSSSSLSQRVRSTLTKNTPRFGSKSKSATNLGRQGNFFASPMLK

[6] = cells; format: functional, cell-based; remark: listed apart in the source
[7] = cells; format: functional, cell-based; remark: listed apart in the source
[8] = target: 1-phosphatidylinositol 4,5-bisphosphate phosphodiesterase beta-3 (Homo sapiens, UniProt Q01970); experiment: Fluorescence-based biochemical high throughput dose response assay to identify inhibitors of phospholipase C isozymes (PLC-B3).
[9] = target: 1-phosphatidylinositol 4,5-bisphosphate phosphodiesterase gamma-1 (Homo sapiens, UniProt P19174); experiment: Counterscreen for inhibitors of phospholipase C isozymes (PLC-B3): Fluorescence-based biochemical high throughput dose response assay to identify inhibitors of phospholipase C isozymes (PLC-gamma1).
[10] = general cell-killing toxicity readout – plate reader, dry powder samples, cytotoxicity control for PAX8 inhibitor project, dose response (AID 743021); format: functional, cell-based
[11] = target: Paired box protein Pax-8 (Homo sapiens, UniProt Q06710); experiment: PAX8 transcriptional activity inhibition in RMG-I – RMG-I cells, luciferase, cherry-pick, dose response (AID 687027); format: functional, cell-based;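 further: luciferase reporter driven by Pax8 target thyroperoxidase promoter measured by SteadyGlo luminescence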
[12] = viability loss in MITF-independent A375 cells – cell-based, CellTiter-Glo luminescence, dry powder, set 2, counter-screen for MITF inhibitor project, dose response (AID 624489); format: functional; settings: A-375;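 further: actives are compounds lowering A375 viability meaning general cytotoxicity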
[13] = cytotoxicity in MITF-independent A375 cells – cell-based, CellTiter-Glo luminescence, dry powder, set 4, counter-screen for MITF inhibitor project, dose response (AID 624364); format: functional; settings: A-375;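 further: A375 melanoma cells are MITF independent so this is a counter screen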
[14] = target: Cytochrome P450 2D6 (Homo sapiens, UniProt P10635);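 further: CYP2D6 member of a cytochrome P450 panel assay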
[15] = target: Cytochrome P450 2C9 (Homo sapiens, UniProt P11712)
[16] = target: Cytochrome P450 3A4 (Homo sapiens, UniProt P08684);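 further: CYP3A4 tested as one member of a cytochrome P450 panel screen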
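Wherever EC50 is given: agonist potency from rise in intracellular calcium fluorescence.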

Chain of 1-phosphatidylinositol 4,5-bisphosphate phosphodiesterase beta-3 (Q01970 whole entry): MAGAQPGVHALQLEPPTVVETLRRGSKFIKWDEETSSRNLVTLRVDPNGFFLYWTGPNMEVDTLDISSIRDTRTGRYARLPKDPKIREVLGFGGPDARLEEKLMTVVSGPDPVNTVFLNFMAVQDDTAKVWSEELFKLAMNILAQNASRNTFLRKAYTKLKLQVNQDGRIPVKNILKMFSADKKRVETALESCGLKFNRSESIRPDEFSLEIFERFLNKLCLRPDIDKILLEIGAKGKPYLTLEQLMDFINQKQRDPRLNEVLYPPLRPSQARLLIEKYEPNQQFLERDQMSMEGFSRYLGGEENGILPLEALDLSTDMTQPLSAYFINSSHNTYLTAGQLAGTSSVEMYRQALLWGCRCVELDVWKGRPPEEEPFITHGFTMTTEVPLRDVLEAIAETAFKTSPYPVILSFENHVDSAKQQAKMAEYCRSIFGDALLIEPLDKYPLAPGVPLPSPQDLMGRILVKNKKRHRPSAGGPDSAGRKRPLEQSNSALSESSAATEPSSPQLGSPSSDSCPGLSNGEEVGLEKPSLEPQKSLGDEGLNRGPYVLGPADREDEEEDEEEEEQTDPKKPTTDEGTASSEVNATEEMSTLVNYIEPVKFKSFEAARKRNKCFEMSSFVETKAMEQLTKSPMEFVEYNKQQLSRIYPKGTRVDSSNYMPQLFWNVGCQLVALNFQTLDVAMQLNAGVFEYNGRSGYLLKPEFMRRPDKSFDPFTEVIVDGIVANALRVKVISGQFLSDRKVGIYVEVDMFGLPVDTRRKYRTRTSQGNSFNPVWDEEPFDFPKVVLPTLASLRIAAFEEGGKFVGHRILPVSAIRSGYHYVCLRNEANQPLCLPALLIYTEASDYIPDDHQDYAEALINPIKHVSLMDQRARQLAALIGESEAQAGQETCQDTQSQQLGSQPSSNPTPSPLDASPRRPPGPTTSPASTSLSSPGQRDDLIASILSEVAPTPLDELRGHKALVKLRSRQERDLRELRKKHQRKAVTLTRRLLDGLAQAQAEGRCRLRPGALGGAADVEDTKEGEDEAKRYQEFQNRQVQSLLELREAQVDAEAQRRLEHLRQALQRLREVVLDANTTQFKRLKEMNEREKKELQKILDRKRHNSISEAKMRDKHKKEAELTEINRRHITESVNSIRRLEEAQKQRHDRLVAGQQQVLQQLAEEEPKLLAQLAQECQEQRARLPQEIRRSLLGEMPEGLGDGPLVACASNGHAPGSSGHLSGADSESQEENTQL
Chain of 1-phosphatidylinositol 4,5-bisphosphate phosphodiesterase gamma-1 (P19174 whole entry): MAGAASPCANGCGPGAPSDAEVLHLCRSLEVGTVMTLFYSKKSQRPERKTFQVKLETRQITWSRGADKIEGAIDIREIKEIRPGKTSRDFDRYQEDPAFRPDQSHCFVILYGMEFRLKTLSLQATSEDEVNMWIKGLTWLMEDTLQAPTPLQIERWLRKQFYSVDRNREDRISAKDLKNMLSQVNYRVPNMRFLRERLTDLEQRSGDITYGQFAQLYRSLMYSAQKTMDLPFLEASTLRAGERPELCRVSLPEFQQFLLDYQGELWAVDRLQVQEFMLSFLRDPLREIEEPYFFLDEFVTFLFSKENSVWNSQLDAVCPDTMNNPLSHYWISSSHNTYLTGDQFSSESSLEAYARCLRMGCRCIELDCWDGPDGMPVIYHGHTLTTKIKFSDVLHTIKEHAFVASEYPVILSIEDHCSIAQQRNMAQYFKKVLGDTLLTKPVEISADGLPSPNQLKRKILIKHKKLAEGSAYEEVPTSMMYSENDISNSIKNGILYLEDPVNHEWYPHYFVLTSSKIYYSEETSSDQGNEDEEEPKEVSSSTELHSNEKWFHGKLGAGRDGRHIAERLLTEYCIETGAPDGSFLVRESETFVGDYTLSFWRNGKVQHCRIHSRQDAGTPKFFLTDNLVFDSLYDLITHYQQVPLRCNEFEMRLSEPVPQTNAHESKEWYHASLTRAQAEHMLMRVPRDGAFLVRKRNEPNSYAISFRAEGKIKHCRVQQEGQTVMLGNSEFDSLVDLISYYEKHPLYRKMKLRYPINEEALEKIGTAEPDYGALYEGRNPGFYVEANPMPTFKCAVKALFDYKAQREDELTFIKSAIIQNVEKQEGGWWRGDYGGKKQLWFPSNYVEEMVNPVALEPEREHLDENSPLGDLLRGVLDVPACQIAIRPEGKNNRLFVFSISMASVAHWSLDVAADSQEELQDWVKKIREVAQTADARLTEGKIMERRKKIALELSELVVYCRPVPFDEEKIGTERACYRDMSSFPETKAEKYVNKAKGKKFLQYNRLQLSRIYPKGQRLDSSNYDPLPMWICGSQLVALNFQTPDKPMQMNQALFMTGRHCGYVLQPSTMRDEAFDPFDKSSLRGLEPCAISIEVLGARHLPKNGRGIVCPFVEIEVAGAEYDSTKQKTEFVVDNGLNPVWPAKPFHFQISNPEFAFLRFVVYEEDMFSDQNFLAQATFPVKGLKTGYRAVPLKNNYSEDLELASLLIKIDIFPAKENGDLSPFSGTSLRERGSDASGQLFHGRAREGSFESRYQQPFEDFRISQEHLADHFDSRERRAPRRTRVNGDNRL
Chain of Cytochrome P450 2D6 (P10635 whole entry): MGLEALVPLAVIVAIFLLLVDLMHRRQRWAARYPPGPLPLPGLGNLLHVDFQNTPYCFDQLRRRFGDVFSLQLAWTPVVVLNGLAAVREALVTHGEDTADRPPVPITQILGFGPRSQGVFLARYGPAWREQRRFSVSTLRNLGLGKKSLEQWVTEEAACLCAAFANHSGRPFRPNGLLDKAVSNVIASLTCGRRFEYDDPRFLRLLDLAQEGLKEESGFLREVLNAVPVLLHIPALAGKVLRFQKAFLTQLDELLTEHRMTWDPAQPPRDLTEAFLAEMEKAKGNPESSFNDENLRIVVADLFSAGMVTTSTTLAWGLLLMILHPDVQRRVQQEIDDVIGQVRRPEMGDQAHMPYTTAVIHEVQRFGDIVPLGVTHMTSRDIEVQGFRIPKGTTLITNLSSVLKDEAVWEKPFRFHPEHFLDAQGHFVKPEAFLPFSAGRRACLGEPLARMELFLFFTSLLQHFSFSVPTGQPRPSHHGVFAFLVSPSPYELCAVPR
Chain of Cytochrome P450 3A4 (P08684 whole entry): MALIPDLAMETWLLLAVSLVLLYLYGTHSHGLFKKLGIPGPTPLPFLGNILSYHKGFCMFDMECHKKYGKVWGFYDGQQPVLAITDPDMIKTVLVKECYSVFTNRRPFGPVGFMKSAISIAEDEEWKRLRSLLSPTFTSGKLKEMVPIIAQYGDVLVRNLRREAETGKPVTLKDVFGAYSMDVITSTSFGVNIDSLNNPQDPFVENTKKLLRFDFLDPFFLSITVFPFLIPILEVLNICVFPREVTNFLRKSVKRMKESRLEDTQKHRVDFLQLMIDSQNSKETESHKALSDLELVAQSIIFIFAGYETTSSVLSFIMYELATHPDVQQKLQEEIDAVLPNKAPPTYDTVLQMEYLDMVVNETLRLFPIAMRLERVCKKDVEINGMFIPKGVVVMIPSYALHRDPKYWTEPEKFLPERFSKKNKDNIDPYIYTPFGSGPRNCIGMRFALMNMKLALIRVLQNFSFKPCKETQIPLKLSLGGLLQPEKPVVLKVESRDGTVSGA
Chain of Paired box protein Pax-8 (Q06710 whole entry): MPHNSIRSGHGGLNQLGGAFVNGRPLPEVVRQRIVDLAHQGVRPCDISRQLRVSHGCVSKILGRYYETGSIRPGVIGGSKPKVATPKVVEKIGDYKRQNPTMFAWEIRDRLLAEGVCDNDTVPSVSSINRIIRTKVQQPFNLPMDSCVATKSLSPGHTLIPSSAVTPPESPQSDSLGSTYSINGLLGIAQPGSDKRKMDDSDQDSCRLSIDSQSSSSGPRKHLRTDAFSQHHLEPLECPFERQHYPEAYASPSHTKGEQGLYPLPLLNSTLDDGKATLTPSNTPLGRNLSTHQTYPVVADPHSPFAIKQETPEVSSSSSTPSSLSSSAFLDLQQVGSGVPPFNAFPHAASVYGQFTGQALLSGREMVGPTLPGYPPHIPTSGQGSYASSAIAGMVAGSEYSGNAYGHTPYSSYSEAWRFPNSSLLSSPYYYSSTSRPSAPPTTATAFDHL
Chain of Cytochrome P450 2C9 (P11712 whole entry): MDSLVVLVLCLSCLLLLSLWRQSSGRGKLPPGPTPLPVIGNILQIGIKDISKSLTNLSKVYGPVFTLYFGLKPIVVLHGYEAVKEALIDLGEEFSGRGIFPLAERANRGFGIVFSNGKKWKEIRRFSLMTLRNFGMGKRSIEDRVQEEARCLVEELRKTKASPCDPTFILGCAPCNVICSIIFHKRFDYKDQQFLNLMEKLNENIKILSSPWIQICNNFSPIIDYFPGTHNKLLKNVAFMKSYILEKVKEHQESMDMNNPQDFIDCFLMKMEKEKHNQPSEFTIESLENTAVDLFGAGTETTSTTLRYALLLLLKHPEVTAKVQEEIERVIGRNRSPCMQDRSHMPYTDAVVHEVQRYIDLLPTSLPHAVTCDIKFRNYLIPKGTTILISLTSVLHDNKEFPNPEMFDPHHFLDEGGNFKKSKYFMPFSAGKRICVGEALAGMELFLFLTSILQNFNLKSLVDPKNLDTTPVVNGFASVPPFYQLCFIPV

SMILES: CNc1nc(NCCOc2ccccc2)c2sccc2n1
AC50 [1]: 4.2 µM (active)
AC50 [2]: 38.3 µM (active)

SMILES: O=C1Cc2c([nH]c3ccc(Br)cc23)-c2ccccc2N1 [KENPAULLONE]
IC50 [3]: > 0.834 µM (active)
IC50 [4]: > 67.5 µM (inactive)

SMILES: CC1NC(C)c2c(ccc3ccccc23)O1 (configuration not stated)
IC50 [5]: 114 µM (active)
IC50 [6]: > 29.9 µM (inactive)
EC50 [7]: > 29.9 µM (inactive)

IC50 [8]: > 122 µM (inactive)
IC50 [9]: > 122 µM (inactive)
SMILES: COc1cc(NS(=O)(=O)c2ccc(NC(=O)CN3C(=O)c4ccccc4C3=O)cc2)nc(OC)n1

SMILES: COC(=O)C1=C(C)N(Cc2ccc(C(F)(F)F)cc2)C(NCc2ccccc2)=NC1c1cccc(F)c1 (configuration not stated)
AC50 [10]: 23.4 µM (active)
AC50 [11]: 26.8 µM (active)

IC50 [8]: > 123 µM (inactive)
IC50 [9]: 15.5 µM (inactive)
SMILES: COc1ccc(CS(=O)(=O)c2nnc[nH]2)cc1

SMILES: CC(=O)NC1=C(c2ccc(Cl)cc2)C(=O)c2ccccc2C1=O
AC50 [12]: 9.22 µM (active)
AC50 [13]: 12.4 µM (active)

SMILES: O=c1cc(-c2ccccc2)oc2cc(O)cc(O)c12 [CHRYSIN]
IC50 [3]: > 67.6 µM (inactive)
AC50 [14]: 12.6 µM (inconclusive)
IC50 [4]: > 67.6 µM (inactive)
AC50 [15]: 5.01 µM (inconclusive)
AC50 [16]: 3.16 µM (inconclusive)

SMILES: COc1ccc(OCC(=O)N2CCc3ccccc3C2)cc1
IC50 [6]: > 29.9 µM (inactive)
EC50 [7]: > 29.9 µM (inactive)
